Patent publication US20140099662A1, “PHOTOTOXICITY TEST METHOD” (SUMITOMO CHEMICAL COMPANY, LIMITED, priority 2011, published 2014)
≈ marks a conversion by molar mass, not a printed value. Where two headings read alike, the source gives them in different places. Blank lines part the entries; values can stand above or below the molecule they belong to.

Tests used:
in vitro [1] = details: human, IC50 (50% inhibitory concentration, cytotoxicity)
Procedure: (§1) The human retinal pigment epithelial cells prepared in Example 2 were treated with 0.25% trypsin to collect the cells from a culture dish. The collected cells were seeded in a 96-well culture dish previously coated with Matrigel at 100000 or 120000 cells per well and then cultured in an incubator at 37° C. and 5% CO2.
(§2) After the cultivation for 2 hours to 4 hours, the medium was removed from the 96-well culture dish using an aspirator and Earle's Balanced Salt Solution (EBSS) was then added to the 96-well culture dish at 150 μl per well to wash the cells.
(§3) After the 96-well culture dish was shaded by wrapping with aluminum foil, irradiation of the culture dish shaded with aluminum foil with light was carried out using a light irradiation device (a solar simulator SXL-2500V2: SERIC LTD.) for 40 minutes (light irradiation dose of about 5 J/cm^2). Immediately after light irradiation, the 96-well culture dish was washed twice with 150 μl of a DMEM/F12 culture liquid and a DMEM/F12 culture liquid supplemented with N2-supplement was then added to the 96-well culture dish at 100 μl per well, followed by cultivation overnight.
(§4) After the cultivation, the medium was removed from the 96-well culture dish and a previously prepared mixed solution of equal amounts of DMEM/F12 culture liquid and Cell titer Glo reaction liquid was then added to the 96-well culture dish at 100 μl per well.
(§5) The obtained 96-well culture dish was allowed to stand at room temperature for 30 minutes while shaking in a shaded state with aluminum foil and 95 μl of culture contained in the 96-well culture dish was then transferred to a white 96-well examining dish. Next, the amount of luminescence of the culture contained in the 96-well examining dish (the amount of luminescence has a correlation with the cell survival rate) was measured by EnVision Multilabel Reader (PerkinElmer). The 50% inhibitory concentration (IC50) of a test substance to the human retinal pigment epithelial cells was calculated from the measured values and the calculated value was considered as a value showing cytotoxicity (an index value correlated therewith).
(§6) Unlike Example 3, irradiation with light was carried out using a light irradiation device (a solar simulator SXL-2500V2: SERIC LTD.) for 40 minutes without wrapping the 96-well culture dish with aluminum foil (light irradiation dose is about 5 J/cm^2 by calculation based on light irradiation strength at 360 nm). Immediately after light irradiation, the 96-well culture dish was washed twice with 150 μl of a DMEM/F12 culture liquid and a DMEM/F12 culture liquid supplemented with N2-supplement was then added to the 96-well culture dish at 100 μl per well, followed by cultivation overnight.
(§7) The above-described PIF value (Photo Irritation Facor value) was obtained based on the 50% inhibitory concentration (IC50) calculated in Example 3 and Example 4 (that is, a value obtained by dividing the cytotoxicity IC50 value in human retinal pigment epithelial cells exposed to a test substance (a (shaded) control for non-light Irradiation) by the cytotoxicity IC50 value in human retinal pigment epithelial cells cultured under simulated solar light irradiation within 24 hours after the onset of exposure to the test substance). […] When the value (PIF value) was greater than 5, the test substance was evaluated as phototoxicity-positive.

[2] = tested on: human retinal pigment epithelial cells; experiment: in vitro
Procedure: as §1, §2, §3, §4, §5, §6, §7

Balb/c 3T3 cells = experiment: in vitro
Procedure: (§8) “Balb/c 3T3 cells” are connective tissue cells and fibroblasts.
(§9) The “Balb/c 3T3 cells” cultured in DMEM medium supplemented with 10% bovine serum and L-glutamine were treated with 0.25% trypsin to collect the cells from a culture dish. The collected cells were seeded in a 96-well culture dish previously coated with a 0.1% gelatin solution at 10000 cells per well and then cultured in DMEM medium supplemented with 10% bovine serum and […] in an incubator at 37° C. and 5% CO2 overnight.
(§10) After the cultivation, the medium was removed from the 96-well culture dish using an aspirator and Earle's Balanced Salt Solution (EBSS) was then added to the 96-well culture dish at 150 μl per well to wash the cells.
(§11) After the 96-well culture dish was shaded by wrapping with aluminum foil, irradiation of the culture dish shaded with aluminum foil with light was carried out using a light irradiation device (a solar simulator SXL-2500V2: SERIC LTD.) for 40 minutes (the light irradiation dose is about 5 J/cm^2 by calculation based on irradiation strength at 360 nm). Immediately after light irradiation, the 96-well culture dish was washed twice with 150 μl of a DMEM/F12 culture liquid and a DMEM/F12 culture liquid supplemented with N2-supplement was then added to the 96-well culture dish at 100 μl per well, followed by cultivation overnight.
as §4
(§12) The obtained 96-well culture dish was allowed to stand at room temperature for 30 minutes while shaking in a shaded state with aluminum foil and 95 μl of culture contained in the 96-well culture dish was then transferred to a white 96-well examining dish.
(§13) Next, the amount of luminescence of the culture contained in the 96-well examining dish (the amount of luminescence has a correlation with the cell survival rate) was measured by EnVision Multilabel Reader (PerkinElmer). The 50% inhibitory concentration (IC50) of a test substance to the human retinal pigment epithelial cells was calculated from the measured values and the calculated value was considered as a value showing cytotoxicity (an index value correlated therewith).
(§14) The “Balb/c 3T3 cells” cultured in DMEM medium supplemented with 10% bovine serum and L-glutamine were treated with 0.25% trypsin to collect the cells from a culture dish. The collected cells were seeded in a 96-well culture dish previously coated with a 0.1% gelatin solution at 10000 cells per well and then cultured in DMEM medium supplemented with 10% bovine serum and L-glutamine in an incubator at 37° C. and 5% CO2 overnight.
as §6, with “Unlike Comparative” for “Unlike”, “1, light” for “3,”, “irradiation” for “irradiation with light”
as §12, with “dish. Next, the amount of luminescence of the culture contained in the 96-well examining dish (the amount of luminescence has a correlation with the cell survival rate) was measured by EnVision Multilabel Reader (PerkinElmer).” for “dish.”

yeast-RBC = details: 4 facilities, validation study report Aug. 27, 2004; cited from earlier work
in vitro [3] = details: mouse, IC50 (50% inhibitory concentration, cytotoxicity)
Procedure: as §8, §9, §10, §11, §4, §12, §13, §14
as §6, with “Unlike Comparative” for “Unlike”, “1, light” for “3,”, “irradiation” for “irradiation with light”
as §12, with “dish. Next, the amount of luminescence of the culture contained in the 96-well examining dish (the amount of luminescence has a correlation with the cell survival rate) was measured by EnVision Multilabel Reader (PerkinElmer).” for “dish.”

[4] = tested on: human retinal pigment epithelial cells
Procedure: The relationship between the light irradiation dose and the above-described PIF value (that is, a value obtained by dividing the cytotoxicity IC50 value in human retinal pigment epithelial cells exposed to a test substance (a (shaded) control for non-light irradiation) by the cytotoxicity IC50 value in human retinal pigment epithelial cells cultured under simulated solar light irradiation within 24 hours after the onset of contact with the test substance) was examined using chlorpromazine (CPZ) used as a positive control in the OECD guideline. Light irradiation was set to each condition of a light of 2.09 mW/cm^2 (measured with UVR300 manufactured by TOPCON CORPORATION equipped with photoreceiving part UD360) for 15 minutes (1.87 J/cm^2), 20 minutes (2.50 J/cm^2), 25 minutes (3.13 J/cm^2), 30 minutes (3.75 J/cm^2), 40 minutes (5.00 J/cm^2) and 60 minutes (7.51 J/cm^2), and the phototoxicity test method was carried out according to the methods described in Example 3 and Example 4. The phototoxicity test method in shaded conditions as a control for non-light irradiation was carried out in the same manner as in the phototoxicity test method under light irradiation except that light was blocked.
The number of viable cells of the human retinal pigment epithelial cells was checked for 15 minutes (1.87 J/cm^2), 20 minutes (2.50 J/cm^2), 25 minutes (3.13 J/cm^2), 30 minutes (3.75 J/cm^2), 40 minutes (5.00 J/cm^2) and 60 minutes (7.51 J/cm^2).

[5] = shaded (control for non-light irradiation)
[6] = shaded with aluminum foil (control for non-light irradiation), 40 minutes, then cultivation overnight
[7] = simulated solar light irradiation 40 minutes, about 5 J/cm^2
[8] = simulated solar light irradiation 40 minutes, about 5 J/cm^2 at 360 nm, then cultivation overnight

Compound: Oc1c(Cl)cc(Cl)cc1Sc1cc(Cl)cc(Cl)c1O [Bithionol, bithionol]
IC50 at 40 min (in vitro [1]): > 10 µg/mL
photocytotoxicity determination by the phototoxicity test method of the present invention [2]: photocytotoxicity-negative
IC50 (50% inhibitory concentration, cytotoxicity) ([2]; human, 40 min): > 10 µg/mL
concentration at or below which cytotoxicity was not observed ([2]; human, 40 min): ≤ 10 µg/mL
photocytotoxicity determination by the comparative phototoxicity test method (Balb/c 3T3 cells): photocytotoxicity-positive
PIF value (Photo Irritation Facor value) = IC50 shaded / IC50 under light irradiation (Balb/c 3T3 cells; mouse, 40 min): 12.4
result in the yeast-RBC assay (yeast-RBC): false positive

Compound: [H]/N=C(\N/C(=N/[H])NCCCCCCNC(=N)NC(=N)Nc1ccc(Cl)cc1)Nc1ccc(Cl)cc1 [Chlorhexidine, chlorhexidine]
IC50 at 40 min (in vitro [1]): 42.7 µg/mL (≈ 84.5 µM)
photocytotoxicity determination by the phototoxicity test method of the present invention [2]: photocytotoxicity-negative
IC50 (50% inhibitory concentration, cytotoxicity) ([2]; human, 40 min): 43.7 µg/mL (≈ 86.5 µM)
PIF value (Photo Irritation Facor value) = IC50 shaded / IC50 under light irradiation ([2]; human, 40 min): 0.98
IC50 at 40 min (in vitro [3]): 13.7 µg/mL (≈ 27.1 µM)
photocytotoxicity determination by the comparative phototoxicity test method (Balb/c 3T3 cells): photocytotoxicity-negative
IC50 (50% inhibitory concentration, cytotoxicity) (Balb/c 3T3 cells; mouse, 40 min): 10.1 µg/mL (≈ 20 µM)
PIF value (Photo Irritation Facor value) = IC50 shaded / IC50 under light irradiation (Balb/c 3T3 cells; mouse, 40 min): 1.4
result in the yeast-RBC assay (yeast-RBC): false positive

PIF ([4]; 15 min): 1.70
PIF ([4]; 20 min): 1.72
PIF ([4]; 25 min): 3.35
PIF ([4]; 30 min): 4.57
PIF ([4]; 40 min): 6.53
PIF ([4]; 60 min): 10.94
Compound: CN(C)CCCN1c2ccccc2Sc2ccc(Cl)cc21 [Chlorpromazine (CPZ), chlorpromazine]
photocytotoxicity determination by the phototoxicity test method of the present invention [2]: photocytotoxicity-positive
PIF value (Photo Irritation Facor value) = IC50 shaded / IC50 under light irradiation ([2]; human, 40 min): 6.5
photocytotoxicity determination by the comparative phototoxicity test method (Balb/c 3T3 cells): photocytotoxicity-positive
PIF value (Photo Irritation Facor value) = IC50 shaded / IC50 under light irradiation (Balb/c 3T3 cells; mouse, 40 min): 23.7
light irradiation dose by which the number of viable cells under light irradiation significantly decreases relative to light blocked conditions ([4]; 25 min, 10 μg/ml): ≥ 3.13 J/cm^2

Compound: CC1(C)S[C@@H]2[C@H](NC(=O)Cc3ccccc3)C(=O)N2[C@H]1C(=O)O [Penicillin G, penicillin G]
photocytotoxicity determination by the phototoxicity test method of the present invention ([2]; evaluation based on PIF value): photocytotoxicity-negative
PIF value (Photo Irritation Facor value) = IC50 shaded / IC50 under light irradiation ([2]; from Example 3 and Example 4, greater than 5 = phototoxicity-positive): Photocytotoxicity is not Confirmed
concentration at or below which cytotoxicity was not observed [2, 5]: ≤ 1000 µg/mL
IC50 (50% inhibitory concentration, cytotoxicity) [2, 6]: > 1000 µg/mL
concentration at or below which cytotoxicity was not observed [2, 7]: ≤ 1000 µg/mL
IC50 (50% inhibitory concentration, cytotoxicity) [2, 8]: > 1000 µg/mL
photocytotoxicity determination by the comparative phototoxicity test method (Balb/c 3T3 cells; evaluation based on PIF value): photocytotoxicity-negative
PIF value (Photo Irritation Facor value) = IC50 shaded / IC50 under light irradiation (Balb/c 3T3 cells; from Comparative Example 1 and Comparative Example 2, greater than 5 = phototoxicity-positive): Photocytotoxicity is not Confirmed
concentration at or below which cytotoxicity was not observed (Balb/c 3T3 cells; [5]): ≤ 1000 µg/mL
IC50 (50% inhibitory concentration, cytotoxicity) (Balb/c 3T3 cells; [6]): > 1000 µg/mL
concentration at or below which cytotoxicity was not observed (Balb/c 3T3 cells; [7]): ≤ 1000 µg/mL
IC50 (50% inhibitory concentration, cytotoxicity) (Balb/c 3T3 cells; [8]): > 1000 µg/mL

Compound: C=C[C@H]1C[N@@]2CC[C@H]1C[C@H]2[C@H](O)c1ccnc2ccc(OC)cc12 [Quinine, quinine]
IC50 at 40 min (in vitro [1]): 147 µg/mL (≈ 453 µM)
photocytotoxicity determination by the phototoxicity test method of the present invention ([2]; evaluation based on PIF value): photocytotoxicity-negative
IC50 (50% inhibitory concentration, cytotoxicity) ([2]; human, 40 min): 88.9 µg/mL (≈ 274 µM)
PIF value (Photo Irritation Facor value) = IC50 shaded / IC50 under light irradiation ([2]; human, 40 min): 1.7
photocytotoxicity determination by the comparative phototoxicity test method (Balb/c 3T3 cells; evaluation based on PIF value): photocytotoxicity-positive
IC50 (Balb/c 3T3 cells; mouse, 40 min): 292 µg/mL (≈ 901 µM)
IC50 (50% inhibitory concentration, cytotoxicity) (Balb/c 3T3 cells; mouse, 40 min): 2.3 µg/mL (≈ 7.09 µM)
PIF value (Photo Irritation Facor value) = IC50 shaded / IC50 under light irradiation (Balb/c 3T3 cells; mouse, 40 min): 128.8
